Structures are written as SMILES. Like-named read-outs stand apart in the source and are kept apart here.

This assay concerns the target Recombinant human factor D (Homo sapiens (Human), UniProt P00746). Kind of assay: biochemical. In kind it is biochemical.
[1] abbreviates: Factor D inhibition data using Method 1, substrate Z-Lys-thiobenzyl, fluorescence readout, read-out: IC50.
[2] abbreviates: IC50, Factor D inhibition data using Method 1, substrate Z-Lys-thiobenzyl, fluorescence readout.

Recombinant human factor D, sequence (P00746 26-253): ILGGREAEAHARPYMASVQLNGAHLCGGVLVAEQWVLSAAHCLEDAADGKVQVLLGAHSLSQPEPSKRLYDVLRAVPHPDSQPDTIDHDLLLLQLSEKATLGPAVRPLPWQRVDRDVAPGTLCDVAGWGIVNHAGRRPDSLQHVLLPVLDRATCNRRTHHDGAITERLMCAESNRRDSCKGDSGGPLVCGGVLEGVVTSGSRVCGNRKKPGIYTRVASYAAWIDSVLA

Take `CC1(O)CCCC(NC(=O)[C@@H]2C[C@H]3C[C@H]3N2C(=O)Cn2nc(C(N)=O)c3ccccc32)C1` (stereo partly drawn) [Example 123, 1-(2-((1R,3S,5R)-3-(3-hydroxy-3-methylcyclohexylcarbamoyl)-2-azabicyclo[3.1.0]hexan-2-yl)-2-oxoethyl)-1H-indazole-3-carboxamide]: the IC50 under setting [1] is 920 nM. On to `CO[C@H]1CCC[C@H](NC(=O)[C@@H]2C[C@H]3C[C@H]3N2C(=O)Cn2nc(C(C)=O)c3ccccc32)C1` [Example 42, (1R,3S,5R)-2-[2-(3-Acetyl-indazol-1-yl)-acetyl]-2-aza-bicyclo[3.1.0]hexane-3-carboxylic acid ((1S,3S)-3-methoxy-cyclohexyl)-amide], for which the IC50 (read-out: IC50) was 1070 nM. `CC(=O)c1nn(CC(=O)N2[C@@H]3C[C@@H]3C[C@H]2C(=O)NC2CC(C)(C)C2)c2cnccc12` [Example 1, (1R,3S,5R)-2-[2-(3-Acetyl-pyrazolo[3,4-c]pyridin-1-yl)-acetyl]-2-aza-bicyclo[3.1.0]hexane-3-carboxylic acid (3,3-dimethyl-cyclobutyl)-amide]: under setting [1], the IC50 turned out to be 204 nM. Take `CC(=O)c1nn(CC(=O)N2[C@H](C(=O)N[C@H]3CCCC(C)(C)C3)C[C@@]3(CO)C[C@@H]23)c2cnccc12` [Example 122, (1R,3S,5S)-2-[2-(3-Acetyl-pyrazolo[3,4-c]pyridin-1-yl)-acetyl]-5-hydroxymethyl-2-aza-bicyclo[3.1.0]hexane-3-carboxylic acid ((S)-3,3-dimethyl-cyclohexyl)-amide]: where the note is “read-out: IC50”, the 50% inhibitory concentration (IC50) was found to be 2200 nM. Turning to `COC1(C(F)(F)F)CCCC(NC(=O)[C@@H]2C[C@H]3C[C@H]3N2C(=O)Cn2nc(C(N)=O)c3ccccc32)C1` (single isomer, unassigned) [Example 39], the IC50 under setting [2] was 85 nM. As for `CC(=O)c1nn(CC(=O)N2[C@@H]3C[C@@H]3C[C@H]2C(=O)NC2CCCC(F)(F)C2)c2cnccc12` (stereo partly drawn) [Example 9, (1R,3S,5R)-2-[2-(3-Acetyl-pyrazolo[3,4-c]pyridin-1-yl)-acetyl]-2-aza-bicyclo[3.1.0]hexane-3-carboxylic acid (3,3-difluoro-cyclohexyl)-amide], the IC50 (read-out: IC50) came to 1480 nM. As for `NC(=O)c1nn(CC(=O)N2[C@@H]3C[C@@H]3C[C@H]2C(=O)NC2CCCC3(CC3)C2)c2ccccc12` (single isomer, unassigned) [Example 57], under setting [2], the IC50 turned out to be 1930 nM. `CC[C@H]1CCC[C@@H](NC(=O)[C@@H]2C[C@H]3C[C@H]3N2C(=O)Cn2nc(C(N)=O)c3cc(C)ncc32)C1` [Example 83, 1-{2-[(1R,3S,5R)-3-((1R,3S)-3-Ethyl-cyclohexylcarbamoyl)-2-aza-bicyclo[3.1.0]hex-2-yl]-2-oxo-ethyl}-5-methyl-1H-pyrazolo[3,4-c]pyridine-3-carboxylic acid amide]: the IC50 under setting [1] amounted to 50 nM. Still for that read-out and setting: as for `CC1(C)CCC[C@@H](NC(=O)[C@@H]2C[C@H]3C[C@H]3N2C(=O)Cn2nc(C(N)=O)c3ccccc32)C1` [Example 54, 1-{2-[(1R,3S,5R)-3-((R)-3,3-Dimethyl-cyclohexylcarbamoyl)-2-aza-bicyclo[3.1.0]hex-2-yl]-2-oxo-ethyl}-1H-indazole-3-carboxylic acid amide], the figure is 57 nM; as for `CC(=O)c1cn(CC(=O)N2[C@@H]3C[C@@H]3C[C@H]2C(=O)N[C@@H]2CCCC(C)(C)C2)c2nnccc12` [Example 66, (1R,3S,5R)-2-[2-(5-Acetyl-pyrrolo[2,3-c]pyridazin-7-yl)-acetyl]-2-aza-bicyclo[3.1.0] hexane-3-carboxylic acid ((R)-3,3-dimethyl-cyclohexyl)-amide], 1210 nM. For `CO[C@H]1CCC[C@@H](NC(=O)[C@@H]2C[C@H]3C[C@H]3N2C(=O)Cn2nc(C(C)=O)c3ccccc32)C1` [Example 45, (1R,3S,5R)-2-[2-(3-Acetyl-indazol-1-yl)-acetyl]-2-aza-bicyclo[3.1.0]hexane-3-carboxylic acid ((1R,3S)-3-methoxy-cyclohexyl)-amide], the IC50 (read-out: IC50) is 405 nM.

On to `CC(=O)c1nn(CC(=O)N2[C@H](C(=O)N[C@@H]3CCCC(C)(C)C3)C[C@@]3(CO)C[C@@H]23)c2cnccc12` [Example 121, (1R,3S,5S)-2-[2-(3-Acetyl-pyrazolo[3,4-c]pyridin-1-yl)-acetyl]-5-hydroxymethyl-2-aza-bicyclo[3.1.0]hexane-3-carboxylic acid ((R)-3,3-dimethyl-cyclohexyl)-amide], for which the IC50 (read-out: IC50) stood at 15 nM.

As for `COC1(C(F)(F)F)CCCC(NC(=O)[C@@H]2C[C@H]3C[C@H]3N2C(=O)Cn2nc(C(N)=O)c3ccccc32)C1` (single isomer, unassigned) [Example 40], the IC50 under setting [2] amounted to 4470 nM. With `NC(=O)c1nn(CC(=O)N2[C@@H]3C[C@@H]3C[C@H]2C(=O)NC2CCCCC2(F)F)c2cnccc12` (stereo partly drawn) [Example 35, 1-{2-[(1R,3S,5R)-3-(2,2-Difluoro-cyclohexylcarbamoyl)-2-aza-bicyclo[3.1.0]hex-2-yl]-2-oxo-ethyl}-1H-pyrazolo[3,4-c]pyridine-3-carboxylic acid amide], the IC50 under setting [1] was 774 nM. As to `CO[C@@H]1CCC[C@@H](NC(=O)[C@@H]2C[C@H]3C[C@H]3N2C(=O)Cn2nc(C(C)=O)c3cc(OCc4ncccn4)ccc32)C1` [Example 69, (1R,3S,5R)-2-{2-[3-Acetyl-5-(pyrimidin-2-ylmethoxy)-indazol-1-yl]-acetyl}-2-aza-bicyclo [3.1.0]hexane-3-carboxylic acid ((1R,3R)-3-methoxy-cyclohexyl)-amide], the IC50 under setting [1] turned out to be 143 nM.

One may read the IC50 as the concentration that gives 50% inhibition.

The record behind these values is US9487483B2, “Complement pathway modulators and uses thereof” (priority 2012, dated 2016).
